Results taken from ChEMBL document CHEMBL5055668 (J Med Chem, 2021).
Active and inactive are the calls of the source. The rule behind the calls is not given here.

Columns and labels:
[1] = test system: THP-1; test: Induction of conversion of M2-macrophages to the M1 phenotype in CM of HCT116 cells treated […]-differentiated human THP-1 cells assessed as upregulation of Il12 mRNA expression at 30 to 100 nM incubated for 24 hrs by qPCR analysis; format: functional, cell-based; settings: dose 30-100 nM
[2] = test system: MC-38; test: Antitumor activity against mouse MC38 cells allografted in C57BL6 mouse assessed as increase in Il12 mRNA expression at 10 to 20 mg/kg, po administered daily for 2 weeks by qPCR analysis; format: functional, organism-based; settings: dose 10-20 mg/kg
[3] = test system: THP-1; test: Induction of conversion of M2-macrophages to the M1 phenotype in CM of HCT116 cells treated […]-differentiated human THP-1 cells assessed as upregulation of Nos2 mRNA expression at 30 to 100 nM incubated for 24 hrs by qPCR analysis; format: functional, cell-based; settings: dose 30-100 nM
[4] = test system: MC-38; test: Antitumor activity against mouse MC38 cells allografted in C57BL6 mouse assessed as reduction in CSF-1R phosphorylation in tumor tissue at 5 to 10 mg/kg, po administered daily for 2 weeks by Western blot analysis; format: functional, organism-based; settings: dose 5-10 mg/kg
[5] = test system: HCT-116; test: Antitumor activity against human HCT-116 cells xenografted in nude BALB/c mouse assessed as tumor growth inhibition at 5 to 20 mg/kg, po administered daily for 2 weeks; format: functional, organism-based; settings: dose 5-20 mg/kg
[6] = molecular target: T1, Macrophage colony-stimulating factor 1 receptor (Mus musculus) (UniProt P09581); test: Inhibition of CSF-1R signaling pathway in C57BL/6 mouse BMDM cells assessed as reduction in M-CSF induced AKT phosphorylation preincubated for 12 hrs followed by M-CSF stimulation for 30 mins by Western blot analysis; format: cell-based
T1 sequence (whole entry): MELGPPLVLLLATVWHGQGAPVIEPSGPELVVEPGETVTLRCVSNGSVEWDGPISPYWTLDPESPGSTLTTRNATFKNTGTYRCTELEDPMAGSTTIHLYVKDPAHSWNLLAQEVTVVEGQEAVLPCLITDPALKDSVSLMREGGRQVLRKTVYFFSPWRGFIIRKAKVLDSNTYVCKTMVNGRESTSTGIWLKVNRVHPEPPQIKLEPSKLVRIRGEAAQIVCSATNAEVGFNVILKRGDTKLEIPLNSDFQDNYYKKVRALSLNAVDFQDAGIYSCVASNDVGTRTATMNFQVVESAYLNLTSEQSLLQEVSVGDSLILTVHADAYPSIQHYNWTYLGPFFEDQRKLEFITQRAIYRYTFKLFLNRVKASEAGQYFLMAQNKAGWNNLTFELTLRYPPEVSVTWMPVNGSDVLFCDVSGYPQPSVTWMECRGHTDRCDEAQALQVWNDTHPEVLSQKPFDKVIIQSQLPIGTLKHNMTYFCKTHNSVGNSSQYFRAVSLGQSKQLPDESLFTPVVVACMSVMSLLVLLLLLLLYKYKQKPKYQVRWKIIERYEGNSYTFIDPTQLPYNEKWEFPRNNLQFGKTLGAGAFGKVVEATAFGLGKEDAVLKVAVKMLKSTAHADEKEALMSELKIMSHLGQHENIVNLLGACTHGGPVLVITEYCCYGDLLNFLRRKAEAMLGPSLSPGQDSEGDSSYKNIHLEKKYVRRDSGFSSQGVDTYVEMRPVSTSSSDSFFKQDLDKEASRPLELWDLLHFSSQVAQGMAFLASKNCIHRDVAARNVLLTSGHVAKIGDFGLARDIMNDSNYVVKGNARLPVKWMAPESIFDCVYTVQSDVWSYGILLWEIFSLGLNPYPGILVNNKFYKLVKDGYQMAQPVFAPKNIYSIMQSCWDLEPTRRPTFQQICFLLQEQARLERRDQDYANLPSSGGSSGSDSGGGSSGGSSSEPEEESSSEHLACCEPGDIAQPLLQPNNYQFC

[7] = test system: BMDM; test: Induction of conversion of M2-macrophages to the M1 phenotype in CM of MC38 cells treated C57BL/6 mouse BMDM cells assessed as down regulation of Chil3 mRNA expression at 30 to 100 nM preincubated with culture medium of MC38 cells for 24 hrs followed by compound addition and measured after 24 hrs by qPCR analysis; format: functional, cell-based; settings: dose 30-100 nM
[8] = test system: MC-38; test: Antitumor activity against mouse MC38 cells allografted in C57BL6 mouse assessed as increase in Il6 mRNA expression at 10 to 20 mg/kg, po administered daily for 2 weeks by qPCR analysis; format: functional, organism-based; settings: dose 10-20 mg/kg
[9] = test system: Mus musculus; test: Toxicity in C57BL/6 mouse allografted with mouse MC38 cells assessed as liver damage at 5 to 20 mg/kg, po administered every day for 2 weeks by histopathological analysis; format: organism-based, MC-38; settings: in vivo, 336 h, dose 5-20 mg/kg
[10] = test system: THP-1; test: Induction of conversion of M2-macrophages to the M1 phenotype in CM of HCT116 cells treated […]-differentiated human THP-1 cells assessed as upregulation of Tnf mRNA expression at 30 to 100 nM incubated for 24 hrs by qPCR analysis; format: functional, cell-based; settings: dose 30-100 nM

With Cc1[nH]c(/C=C2\C(=O)Nc3cc(NC(=O)Nc4cc(C(C)(C)C)on4)ccc32)c(C)c1NC(=O)CN1CCN(C)CC1 the Activity [1] was “Active”, the Activity [2] was “Active” and the Activity [3] was “Active”. The Activity [4] was “Active”, the Activity [5] was “inactive” and the inhibition [6] was “Dose-dependent effect”. For the same compound, the Activity [7] was “Active”, the Activity [8] was “Active” and the Activity [9] was “Non-Toxic”. The Activity [10] was “Active”.
